Values quoted from earlier work as cited in patent publication US20240000717A1, “DRY POWDER ANTIVIRAL COMPOSITIONS AND THEIR USE FOR TREATING VIRAL INFECTION” (priority 2020, published 2024).

Tested on: hospitalized COVID-19 patients
Conditions: Pan et al., MedRxiv 2020

CCC(CC)COC(=O)[C@H](C)N[P@](=O)(OC[C@H]1O[C@@](C#N)(c2ccc3c(N)ncnn23)[C@H](O)[C@@H]1O)Oc1ccccc1 [remdesivir, 2-ethylbutyl ((S)-(((2R,3S,4R,5R)-5-(4-aminopyrrolo[2,1-f][1,2,4]triazin-7-yl)-5-cyano-3,4-dihydroxytetrahydrofuran-2-yl)methoxy)(phenoxy)phosphoryl)-L-alaninate]
effect on 28-day mortality: little or no effect
